Here are results for 3 molecules from patent US20090047243A1, “COMBINATIONS FOR THE TREATMENT OF B-CELL PROLIFERATIVE DISORDERS” (priority 2007, published 2009).

Assay [1] concerns H929 multiple myeloma cell line. The assay is described as follows: Anti-proliferation assay (ATPLite, 72 h). Also noted: key: S = lnfX·lnfY·ΣIdata(Idata−ILoewe), volume over Loewe additivity. It is filed as cell-based, human. The method in brief: (§1)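 Cells treated 72 h with compounds in 2- or 3-fold serial dilutions (12 concentrations for single agents; 6×6 matrix for combinations); INA-6 medium supplemented with 10 ng/ml IL-6. Viability by ATPLite luminescence; % inhibition vs untreated wells, curves fitted, combinations assessed by Loewe additivity and Synergy Score.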

For assay [2], the system named is RPMI-8226 multiple myeloma cell line. The assay is described as follows: Anti-proliferation assay (ATPLite, 72 h). It is filed as cell-based, human. Also noted: key: S = lnfX·lnfY·ΣIdata(Idata−ILoewe), volume over Loewe additivity. Put shortly: as §1
For assay [3], the system named is human multiple myeloma cells (MM.1S). The assay is described as follows: Anti-proliferation assay (ATPLite, 72 h). Particulars: for inhibition at 1.17 µM: ADAC 1.17 μM; for inhibition at 3.51 µM: ADAC 3.51 μM; for inhibition at 10.5 µM: ADAC 10.5 μM; for inhibition at 31.6 µM: ADAC 31.6 μM; for percent inhibition of ATP in MM.1S cells: 72 h. The class given is cell-based. Also noted: key to synergy score / synergy (score), PDEi × HE-NECA: S = lnfX·lnfY·ΣIdata(Idata−ILoewe), volume over Loewe additivity. The method in brief: as §1

The subject of assay [4] is RPMI-8226, H929, MM.1S and MM.1R MM cell lines. The assay is described as follows: Anti-proliferation assay, statements across MM cell lines. It is filed as cell-based, human. Particulars: for activity and synergy of adenosine receptor agonists: RPMI-8226, H929, MM.1S and MM.1R MM cell lines. As to the method: The MM.1S, MM.1R, H929, MOLP-8, EJM, INA-6, ANBL6, KSM-12-PE, OPM2, and RPMI-8226 multiple myeloma cell lines, as well as the Burkitt's lymphoma cell line GA-10 and the non-Hodgkin's lymphoma cell lines Farage, SU-DHL6, and Karpas 422 were cultured at 37° C. and 5% CO2 in RPMI-1640 media supplemented with 10% FBS. ANBL6 and INA-6 culture media was also supplemented with 10 ng/ml IL-6. The OCI-ly10 cell line was cultured using RPMI-1640 media supplemented with 20% human serum. MM.1S, MM.1R, OCI-ly10, Karpas 422, and SU-DHL6 cells were provided by the Dana Farber Cancer Institute. H929, RPMI-8226, GA-10, and Farage cells were from ATCC (Cat #'s CCL-155, CRL-9068, CRL-2392 and CRL-2630 respectively). MOLP-8, EJM, KSM-12-PE, and OPM2 were from DSMZ. The ANBL6 and INA-6 cell lines were provided by the M. D. Anderson Cancer Research Center.
Compounds were prepared in DMSO at 1000× the highest desired concentration. Master plates were generated consisting of serially diluted compounds in 2- or 3-fold dilutions in 384-well format. For single agent dose response curves, the master plates consisted of 9 individual compounds at 12 concentrations in 2- or 3-fold dilutions. For combination matrices, master plates consisted of individual compounds at 6 or 9 concentrations at 2- or 3-fold dilutions.
Cells were added to 384-well plates 24 hours prior to compound addition such that each well contained 2000 cells in 35 μL of media. Master plates were diluted 100× (1 μL into 100 μL) into 384-well dilution plates containing only cell culture media. 4.5 μL from each dilution plate was added to each assay plate for a final dilution of 1000×. To obtain combination data, two master plates were diluted into the assay plates. Following compound addition, assay plates were kept at 37° C. and 5% CO2 for 72 hours. Thirty microliters of ATPLite (Perkin Elmer) at room temperature was then added to each well. Final amount of ATP was quantified within 30 minutes using ATPLite luminescent read-out on an Envision 2103 Multilabel Reader (Perkin Elmer). Measurements were taken at the top of the well using a luminescence aperture and a read time of 0.1 seconds per well.
The Loewe additivity model was used to quantify combination effects. Combinations were ranked initially by Additivity Excess Volume, which is defined as ADD Volume=ΣCX, CY (Idata−ILoewe). where ILoewe(CX, CY) is the inhibition that satisfies (CX/ECX)+(CY/ECY)=1, and ECX,Y are the effective concentrations at ILoewe for the single agent curves. A “Synergy Score” was also used, where the Synergy Score S=log fX log fY ΣIdata(Idata−ILoewe), summed over all non-single-agent concentration pairs, and where log fX,Y is the natural logarithm of the dilution factors used for each single agent. This effectively calculates a volume between the measured and Loewe additive response surfaces, weighted towards high inhibition and corrected for varying dilution factors. An uncertainty σS was calculated for each synergy score, based on the measured errors for the Idata values and standard error propagation.

Where [5] appears, read: Homo sapiens, MM1.S, 10 ng/mL IL-6, Trequinsin conc. (μM), read-out: percent inhibition of ATP in MM.1S cells.
[6] abbreviates: Homo sapiens, MM1.S, no IL-6, Trequinsin conc. (μM), read-out: percent inhibition of ATP in MM.1S cells.

Read-outs that look alike come from different tables or passages of the source.

Regarding `COc1cc(-c2ccc(=O)[nH]n2)ccc1OC(F)F` [Zardaverine, 6-(4-(difluoromethoxy)-3-methoxyphenyl)-3(2H)-Pyridazinone], the “synergy (score), PDEi × HE-NECA” value in assay [1] (6×6 cross of PDE inhibitor or PDE inhibitor mixture with HE-NECA, H929) is given as 3.39; in assay [3] (6×6 cross of PDE inhibitor or PDE inhibitor mixture with HE-NECA, MM.1S), 4.39. The synergy score in assay [1] (PDE inhibitor crossed with (S) ENBA, H929) worked out at 4.02; in assay [1] (PDE inhibitor crossed with Chloro-IB-MECA, H929), 2.97; in assay [1] (PDE inhibitor crossed with HE-NECA, H929) it was 3.39; in assay [1] (in combination with adenosine receptor agonist CGS-21680, H929) it was 3.75; in assay [1] (in combination with adenosine receptor agonist HE-NECA, H929), 3.39; in assay [1] (in combination with adenosine receptor agonist regadenoson, H929), 1.02. Further, the synergy score in assay [2] (in combination with adenosine receptor agonist CGS-21680, RPMI 8226) was 0.13; in assay [2] (in combination with adenosine receptor agonist HE-NECA, RPMI-8226), 0.43; in assay [2] (in combination with adenosine receptor agonist regadenoson, RPMI 8226), 0.52; in assay [3] (PDE inhibitor crossed with (S) ENBA, MM.1S), 2.59; in assay [3] (PDE inhibitor crossed with Chloro-IB-MECA, MM.1S), 3.71; in assay [3] (PDE inhibitor crossed with HE-NECA, MM.1S), 4.39. The synergy score is listed as 3.64 in assay [3] (in combination with adenosine receptor agonist CGS-21680, MM.1S); 4.39 in assay [3] (in combination with adenosine receptor agonist HE-NECA, MM.1S); 1.45 in assay [3] (in combination with adenosine receptor agonist regadenoson, MM.1S). In assay [3] (Homo sapiens, MM1.S, Zardaverine 1.89 μM, Cl-IB-MECA conc. (μM), read-out: Percent inhibition of ATP in MM.1S cells), the inhibition at 1.89 µM was 0.11%. In assay [3] (Homo sapiens, MM1.S, Zardaverine 3.79 μM, Cl-IB-MECA conc. (μM), read-out: Percent inhibition of ATP in MM.1S cells), the inhibition at 3.79 µM was -1.8%. Besides, in assay [3] (Homo sapiens, MM1.S, Zardaverine 7.58 μM, Cl-IB-MECA conc. (μM), read-out: Percent inhibition of ATP in MM.1S cells), the inhibition at 7.58 µM was 13%. In addition, in assay [3] (Homo sapiens, MM1.S, Zardaverine 15.2 μM, Cl-IB-MECA conc. (μM), read-out: Percent inhibition of ATP in MM.1S cells), the inhibition at 15.2 µM was 5.1%. In addition, the inhibition at 30.3 µM in assay [3] (Homo sapiens, MM1.S, Zardaverine 30.3 μM, Cl-IB-MECA conc. (μM), read-out: Percent inhibition of ATP in MM.1S cells) worked out at 14%. For the same molecule, in assay [4] (crossed with adenosine receptor agonists), the “rank of synergy scores among PDE inhibitors” value was “highest synergy scores”.
Consider `NCCNC(=O)Cc1ccc(NC(=O)Cc2ccc(Nc3ncnc4c3ncn4[C@@H]3O[C@H](CO)[C@@H](O)[C@H]3O)cc2)cc1` [ADAC, N-(4-(2-((4-(2-((2-aminoethyl)amino)-2-oxoethyl)phenyl)amino)-2-oxoethyl)phenyl)-Adenosine], for which, in assay [3] (setting [5]), the inhibition at 1.17 µM worked out at 79%, the inhibition at 3.51 µM amounted to 81%, the inhibition at 10.5 µM was determined as 85% and the inhibition at 31.6 µM came out at 83%. Further, in assay [3] (Homo sapiens, MM1.S, 10 ng/mL IL-6, ADAC […], Trequinsin conc. (μM), read-out: percent inhibition of ATP in MM.1S cells), the inhibition at […] turned out to be 61%. The inhibition at 1.975 µM in assay [3] (Homo sapiens, MM1.S, ADAC 1.975 μM, Trequinsin Hydrochloride conc. (μM), read-out: Percent inhibition of ATP in MM.1S cells) was 37%. Besides, in assay [3] (Homo sapiens, MM1.S, ADAC 3.95 μM, Trequinsin Hydrochloride conc. (μM), read-out: Percent inhibition of ATP in MM.1S cells), the inhibition at 3.95 µM came to 49%. For the same molecule, in assay [3] (Homo sapiens, MM1.S, ADAC 15.8 μM, Trequinsin Hydrochloride conc. (μM), read-out: Percent inhibition of ATP in MM.1S cells), the inhibition at 15.8 µM came to 66%. Moreover, in assay [3] (Homo sapiens, MM1.S, Trequinsin Hydrochloride conc. (μM), read-out: Percent inhibition of ATP in MM.1S cells), the inhibition at 31.6 µM was 60%. In assay [3] (setting [6]), the inhibition at 1.17 µM stood at 49%, the inhibition at 3.51 µM is 57%, the inhibition at 10.5 µM came to 66% and the inhibition at 31.6 µM worked out at 60%. Further, the “activity and synergy of adenosine receptor agonists” value in assay [4] was “active and synergistic”.
Take `CCCCC#Cc1nc(N)c2ncn([C@@H]3O[C@H](C(=O)NCC)[C@@H](O)[C@H]3O)c2n1` [HE-NECA, hexynyladenosine-5′-N-ethylcarboxamide]: the “percent inhibition of ATP in MM.1S cells” value in assay [3] (HE-NECA 0.0251 μM alone (trequinsin 0)) was 78%; in assay [3] (HE-NECA 0.0752 μM alone (trequinsin 0)), 79%; in assay [3] (HE-NECA 0.226 μM alone (trequinsin 0)), 83%; in assay [3] (HE-NECA 0.677 μM alone (trequinsin 0)), 80%; in assay [3] (HE-NECA 2.03 μM alone (trequinsin 0)), 86%. Besides, the “activity and synergy of adenosine receptor agonists” value in assay [4] is “active and synergistic”.
